Reference: patent US20080292619A1, “Pharmaceutical Composition Containing Meltrin Antagonist” (MOCHIDA PHARMACEUTICAL CO., LTD., priority 2004, published 2008)
In the oligonucleotide strings, read from the 5' end, every base follows the letter of its sugar. An asterisk marks phosphorothioate; unmarked linkages are phosphodiester. Other units and linkages are bracketed, terminal groups are in braces. A string of capitals states the bases alone. d = 2'-deoxy (DNA)

Key:
human preadipocyte = test: Adipocyte proliferation and differentiation, neutral fat accumulation (Adipo Red); assay type: cell-based
Experimental: The differentiation medium was prepared by adding supplement kit PGM SingleQuots, #PT-9500, Lot.08101163 (Sanko Junyaku Co., Ltd.) to 100 mL of growth medium. 50 μL of the supernatant was removed from the 96 well plate prepared in Example 12, and 50 μL of the siRNA or the antisense oligonucleotide prepared in the differentiation medium was added, and incubation was conducted in a CO2 incubator for 5 days to 15 days.
The amount of neutral fat accumulated in the adipocyte was determined by fluorometry using Adipo Red stain.
After taking the 96 well plate out of the CO2 incubator, the plate was allowed to stand until it cooled to room temperature. The plate was centrifuged at 300 g (1200 rpm) for 10 minutes at room temperature to remove the medium. Next, the plate was gently washed with 200 μL/well of PBS (Sigma), and 200 μL/well of PBS was added to the well.
Next, 5 μL/well of Adipo Red Assay Reagent (Adipo Red, Cat. #PT-7009, Lot.3F0497, A Cambrex Company) was added, and the plate was allowed to stand at room temperature for at least 10 minutes to thereby stain the neutral fat that had accumulated in the adipocyte. The fluorescence intensity was measured in a fluorometer at an excitation wavelength of 485 nm and an emission wavelength of 535 nm to thereby determine the fat accumulation.
(§1) According to the method of Example 15, M82463 was added to the human preadipocyte incubation system at a concentration of 0.3 to 10 μg/mL so that the final concentration of the DMSO was 0.2%. As a control, a group having only the DMSO added to a final concentration of 0.2% was used.
After preparation of the antibody to the concentration of 0.100 mg/mL with physiological saline, 9 volumes of adipocyte differentiation medium was added to 1 volume of the antibody solution, and the solution was sterilized by filtering through a filter having a diameter of 0.22 μm (MILLEX-GV 0.22 μm Filter unit, 3slgv013SL, Lot. R2NN83622, MILLIPORE). […]

adipocyte = test: Toxicity for the adipocyte (WST1 assay); assay type: cell-based, human; settings: at the concentration used in the assay (0.3 to 10 μg/mL)
Experimental: Toxicity of the test substance to the adipocyte was examined by WST1 assay. More specifically, Premix WST-1 Cell Proliferation Assay System (Takara Shuzo Co., Ltd.) was added at 10 μL/well, and after incubating at 37° C. for 60 minutes in a CO2 incubator, absorbance (450 nm-650 nm) was measured to examine influence on the adipocyte.
as §1

meltrin α = molecular target: T1, meltrin α (Homo sapiens, UniProt O43184, E208G/T209S); test: Inhibition of protease activity of meltrin α (rhIGF-BP3 cleavage, western blotting); assay type: biochemical; settings: low molecular weight compound 10 μg/mL; rhIGF-BP3 band
T1 construct: had been converted to mature meltrin α having the prodomain deleted (molecular weight 68 kDa); made in house; host or cells: COS-1
T1 sequence (O43184 208-738 isoform O43184-2 E208G/T209S): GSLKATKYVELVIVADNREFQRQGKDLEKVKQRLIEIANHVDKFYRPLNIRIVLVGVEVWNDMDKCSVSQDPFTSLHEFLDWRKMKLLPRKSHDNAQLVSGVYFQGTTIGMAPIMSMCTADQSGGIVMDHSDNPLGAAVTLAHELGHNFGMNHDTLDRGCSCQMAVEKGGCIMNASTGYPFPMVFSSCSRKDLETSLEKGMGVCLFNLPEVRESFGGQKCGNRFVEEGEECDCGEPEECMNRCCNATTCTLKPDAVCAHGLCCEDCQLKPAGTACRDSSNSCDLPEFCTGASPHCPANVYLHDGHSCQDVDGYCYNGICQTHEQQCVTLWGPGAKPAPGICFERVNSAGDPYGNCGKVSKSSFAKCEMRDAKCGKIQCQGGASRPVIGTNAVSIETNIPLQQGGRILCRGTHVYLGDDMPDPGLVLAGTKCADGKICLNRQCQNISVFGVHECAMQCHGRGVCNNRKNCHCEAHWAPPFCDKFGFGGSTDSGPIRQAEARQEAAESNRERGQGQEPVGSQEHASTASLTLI
Experimental: Thrombin (Amersham Biosciences) was added to the purified meltrin α-STFLAG prepared in Example 5, and mixture was kept at 25° C. for 15 hours. When the solution after the reaction was examined by repeating the procedure of Example 5, the human meltrin α containing the prodomain (molecular weight 92 kDa) had been converted to mature meltrin α having the prodomain deleted (molecular weight 68 kDa). For measuring the enzymatic activity of the meltrin α, the solution after the prodomain cleavage with thrombin followed by inactivation of the thrombin by 10 mM APMSF (Wako Pure Chemical Industries, Ltd.) was used. The disappearance of the thrombin activity was confirmed by using the synthetic substrate for the thrombin on the reaction solution. […]
The anti-human meltrin α antibodies produced in Examples 6 and 7 were evaluated on their activity for inhibiting protease activity of meltrin α by using the protease activity assay system of Example 9. […] After the reaction, the reaction solution was electrophoresed by SDS-PAGE, and the rhIGF-BP3 was detected by western blotting.
According to the method of Example 9, activity of the low molecular weight compound for inhibiting protease activity of the meltrin α was assayed as described below. […] After the reaction, the reaction solution was electrophoresed by SDS-PAGE, and the rhIGF-BP3 was detected by western blotting.

meltrin α mRNA = test: Quantitative determination of human meltrin α expression in human preadipocyte (real time PCR); assay type: cell-based; settings: antisense DNA transfected human preadipocyte; sense oligo DNA group = 100%
Experimental: First, the human preadipocyte for use in the assay (human preadipocytes-sq donor10547, POIETICS #PT-5001, Lot.3F0242, Sanko Junyaku Co., Ltd.) which had been adjusted to a cell concentration of 1×10^5 cells/mL was added to a 96 well culture plate at 1×10^2 to 1×10^4 cells/well/100 μL, and cultured overnight. In the meanwhile, the culture medium in which preadipocytes had been suspended at 1×10^5 cells/mL was added to a 6 well plate at 1600 μL/well, and growth medium was also added to the plate at 400 μL/well, and the cells were cultured overnight. 1 μg to 50 μg of synthetic oligo DNA was added to serum free adipocyte growth medium or serum. free D-MEM, and after adding 3 μL of FuGENE6 per 1 μg of oligo DNA, the mediums were allowed to stand at room temperature for 15 to 45 minutes. From the 6 well plate described above, 400 μL/well of the medium was removed and 400 μL/well of the culture medium containing the oligo DNA was added, and the plate was incubated at 37° C. for 18 hours in the presence of 5% CO2 to evaluate the level of expression of meltrin in Example 15. […]
After removing PBS from the plate, 0.5 mL/well of Trizol Reagent (Invitrogen) was added to the plate. […] After drying, the precipitate was dissolved in water not containing RNase, and absorbance at a wavelength of 260 nm was measured to determine the RNA concentration (1OD=40 μg/mL). […]

| Compound | adipocyte proliferation and differentiation (human preadipocyte; 0.3 to 10 μg/mL, DMSO 0.2%) | cytotoxicity (adipocyte) | activity for inhibiting protease activity of meltrin α (meltrin α) | accumulation of the neutral fat in the preadipocyte (human preadipocyte; 5 days after differentiation stimulation, compared to the sense sequence group) | suppression of level of expression of the meltrin α (meltrin α mRNA) |
| --- | --- | --- | --- | --- | --- |
| Oc1c(C(Nc2ccccn2)c2ccccc2)ccc2cccnc12 (centres unmarked) [M82463, 7-[phenyl(pyridine-2-ylamino)methyl]quinoline-8-ol] | suppressed the adipocyte proliferation and differentiation in a dose dependent manner | no cytotoxicity was found | suppressed the disappearance of the rhIGF-BP3 |  |  |
| HS0307A: phosphorothioate antisense sequence CACGGGCAGCGGGCGCGCTGCCAT near the 5′ end of the coding region of human meltrin α (antisense dC*dA*dC*dG*dG*dG*dC*dA*dG*dC*dG*dG*dG*dC*dG*dC*dG*dC*dT*dG*dC*dC*dA*dT) |  |  |  | suppressed to a greater degree | about 70% |
